Activity calls are given as the source filed them. No stated cut-off is given here; in the data, actives have a measured IC50 and inactives only a lower limit.

For the assay, the target named is Envelope glycoprotein gp160 (Human immunodeficiency virus 1, UniProt Q6QLK5). The experiment in a line: cell-free HIV fusion peptide-binding blockers – biochemical, uHTS, fluorescence dequenching, […] (AID 1986).
Chain of Envelope glycoprotein gp160 (Q6QLK5 whole entry, the tested form may be a part): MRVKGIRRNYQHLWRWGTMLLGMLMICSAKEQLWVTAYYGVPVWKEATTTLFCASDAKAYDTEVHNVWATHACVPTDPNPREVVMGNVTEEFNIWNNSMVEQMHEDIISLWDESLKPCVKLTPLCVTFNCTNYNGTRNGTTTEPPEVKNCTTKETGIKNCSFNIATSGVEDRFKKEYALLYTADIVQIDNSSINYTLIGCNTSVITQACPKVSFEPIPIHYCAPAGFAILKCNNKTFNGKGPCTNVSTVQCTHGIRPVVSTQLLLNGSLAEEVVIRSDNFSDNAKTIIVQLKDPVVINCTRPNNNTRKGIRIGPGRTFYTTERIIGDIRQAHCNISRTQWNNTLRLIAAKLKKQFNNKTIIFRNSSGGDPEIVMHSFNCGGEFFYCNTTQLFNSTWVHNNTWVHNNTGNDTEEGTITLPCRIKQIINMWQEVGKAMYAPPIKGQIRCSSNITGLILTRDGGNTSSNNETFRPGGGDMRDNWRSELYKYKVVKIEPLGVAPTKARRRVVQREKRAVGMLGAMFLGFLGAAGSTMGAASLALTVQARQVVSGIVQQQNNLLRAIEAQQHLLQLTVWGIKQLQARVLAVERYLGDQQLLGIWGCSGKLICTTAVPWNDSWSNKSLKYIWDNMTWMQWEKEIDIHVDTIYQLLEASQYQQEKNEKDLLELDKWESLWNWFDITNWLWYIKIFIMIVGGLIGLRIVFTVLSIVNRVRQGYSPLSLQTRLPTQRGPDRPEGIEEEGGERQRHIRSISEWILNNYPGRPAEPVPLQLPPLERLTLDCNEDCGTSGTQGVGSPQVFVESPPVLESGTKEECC
Regarding `O=C(O)c1ccc(N/N=C/c2ccc(-c3cccc(Cl)c3)o2)cc1`, the 50% inhibitory concentration (IC50) (in general, the point on the concentration scale where inhibition reaches its midpoint) is 22.2 µM (active). The result for `CCc1nnc(NS(=O)(=O)c2ccc(NC(=S)NC(=O)/C=C/c3ccc(C(C)C)cc3)cc2)s1` reads 12.1 µM (active). The result for `CCOc1cc(/C=N/Nc2cccc(C(=O)O)c2)ccc1OC(=O)c1ccccc1` reads 23.4 µM (active).

Source of the values: ChEMBL document CHEMBL1201862, “PubChem BioAssay data set” (2004).
